{
  "source": "PubChem BioAssay (NCI)",
  "test_in_all_cases": "NCI tumour cell line growth inhibition, 48 h",
  "key": {"[1]": {"test_system": "ACHN renal"}, "[2]": {"test_system": "HCT-15 colon"}, "[3]": {"test_system": "SNB-19 CNS"}, "[4]": {"test_system": "NCI-H522 lung"}, "[5]": {"test_system": "OVCAR-3 ovarian"}, "[6]": {"test_system": "HOP-62 NSCLC"}, "[7]": {"test_system": "SN12C renal"}, "[8]": {"test_system": "DMS 114 small cell lung"}, "[9]": {"test_system": "DMS 273 small cell lung"}, "[10]": {"test_system": "SK-MEL-28 melanoma"}, "[11]": {"test_system": "KM12 colon"}, "[12]": {"test_system": "UO-31 renal"}, "[13]": {"test_system": "K-562 leukemia"}, "[14]": {"test_system": "OVCAR-8 ovarian"}, "[15]": {"test_system": "SF-539 CNS"}, "[16]": {"test_system": "HL-60(TB) leukemia"}, "[17]": {"test_system": "DLD-1 colon"}, "[18]": {"test_system": "HCT-116 colon"}, "[19]": {"test_system": "HOP-92 NSCLC"}, "[20]": {"test_system": "SF-268 CNS"}, "[21]": {"test_system": "TK-10 renal"}, "[22]": {"test_system": "NCI-H23 lung"}, "[23]": {"test_system": "SW-620 colon"}, "[24]": {"test_system": "OVCAR-4 ovarian"}, "[25]": {"test_system": "CAKI-1 renal"}, "[26]": {"test_system": "LXFL 529 NSCLC"}, "[27]": {"test_system": "A549 NSCLC"}, "[28]": {"test_system": "SK-MEL-2 melanoma"}, "[29]": {"test_system": "KM20L2 colon"}, "[30]": {"test_system": "A498 renal"}, "[31]": {"test_system": "RXF 393 renal"}, "[32]": {"test_system": "MOLT-4 leukemia"}, "[33]": {"test_system": "SNB-75 CNS"}, "[34]": {"test_system": "COLO 205 colon"}, "[35]": {"test_system": "MALME-3M melanoma"}, "[36]": {"test_system": "HCC-2998 colon"}, "[37]": {"test_system": "UACC-257 melanoma"}, "[38]": {"test_system": "LOX IMVI melanoma"}, "[39]": {"test_system": "HT29 colon"}, "[40]": {"test_system": "NCI-H460 lung"}, "[41]": {"test_system": "UACC-62 melanoma"}, "[42]": {"test_system": "OVCAR-5 ovarian"}, "[43]": {"test_system": "SK-OV-3 ovarian"}, "[44]": {"test_system": "786-0 renal"}, "[45]": {"test_system": "M14 melanoma"}, "[46]": {"test_system": "HOP-18 NSCLC"}, "[47]": {"test_system": "SNB-78 CNS"}, "[48]": {"test_system": "CCRF-CEM leukemia"}, "[49]": {"test_system": "SK-MEL-5 melanoma"}, "[50]": {"test_system": "SF-295 CNS"}, "[51]": {"test_system": "U251 CNS"}, "[52]": {"test_system": "IGROV1 ovarian"}, "[53]": {"test_system": "EKVX NSCLC"}, "[54]": {"test_system": "RPMI-8226 leukemia"}},
  "note": "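Cells were grown in 96-well plates and exposed to each compound for 48 hours at five concentrations; endpoints were interpolated linearly between bracketing concentrations, or set to the highest concentration if not reached. TGI is the concentration that stops growth completely.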",
  "data": [
    {"compound": "O=C(c1ccccc1)C(c1ccccc1)C1(O)C(=O)Nc2c(Cl)ccc(Cl)c21", "note": "(centres undefined)", "values": [
      {"measurement": "TGI", "setting": "[1]", "result": 31.7, "unit": "µM"},
      {"measurement": "TGI", "setting": "[2]", "result": 36.2, "unit": "µM"},
      {"measurement": "TGI", "setting": "[3]", "result": "> 85.6", "unit": "µM"},
      {"measurement": "TGI", "setting": "[4]", "result": 34.9, "unit": "µM"},
      {"measurement": "TGI", "setting": "[5]", "result": 32.4, "unit": "µM"},
      {"measurement": "TGI", "setting": "[6]", "result": 49.8, "unit": "µM"},
      {"measurement": "TGI", "setting": "[7]", "result": 31.8, "unit": "µM"},
      {"measurement": "TGI", "setting": "[8]", "result": 37.2, "unit": "µM"},
      {"measurement": "TGI", "setting": "[9]", "result": 42.9, "unit": "µM"},
      {"measurement": "TGI", "setting": "[10]", "result": 34.6, "unit": "µM"},
      {"measurement": "TGI", "setting": "[11]", "result": 50.5, "unit": "µM"},
      {"measurement": "TGI", "setting": "[12]", "result": 39.1, "unit": "µM"},
      {"measurement": "TGI", "setting": "[13]", "result": 35, "unit": "µM"},
      {"measurement": "TGI", "setting": "[14]", "result": 44.7, "unit": "µM"},
      {"measurement": "TGI", "setting": "[15]", "result": 44.5, "unit": "µM"},
      {"measurement": "TGI", "setting": "[16]", "result": 38.5, "unit": "µM"},
      {"measurement": "TGI", "setting": "[17]", "result": 35, "unit": "µM"},
      {"measurement": "TGI", "setting": "[18]", "result": 31, "unit": "µM"},
      {"measurement": "TGI", "setting": "[19]", "result": 35.4, "unit": "µM"},
      {"measurement": "TGI", "setting": "[20]", "result": 54, "unit": "µM"},
      {"measurement": "TGI", "setting": "[21]", "result": "> 67.3", "unit": "µM"},
      {"measurement": "TGI", "setting": "[22]", "result": 35.6, "unit": "µM"},
      {"measurement": "TGI", "setting": "[23]", "result": 37.9, "unit": "µM"},
      {"measurement": "TGI", "setting": "[24]", "result": 13.4, "unit": "µM"},
      {"measurement": "TGI", "setting": "[25]", "result": 39.8, "unit": "µM"},
      {"measurement": "TGI", "setting": "[26]", "result": 31.2, "unit": "µM"},
      {"measurement": "TGI", "setting": "[27]", "result": "> 69.1", "unit": "µM"},
      {"measurement": "TGI", "setting": "[28]", "result": 39.5, "unit": "µM"},
      {"measurement": "TGI", "setting": "[29]", "result": "> 100", "unit": "µM"},
      {"measurement": "TGI", "setting": "[30]", "result": 64.6, "unit": "µM"},
      {"measurement": "TGI", "setting": "[31]", "result": 33.8, "unit": "µM"},
      {"measurement": "TGI", "setting": "[32]", "result": 49, "unit": "µM"},
      {"measurement": "TGI", "setting": "[33]", "result": 39.2, "unit": "µM"},
      {"measurement": "TGI", "setting": "[34]", "result": 38.5, "unit": "µM"},
      {"measurement": "TGI", "setting": "[35]", "result": 31.3, "unit": "µM"},
      {"measurement": "TGI", "setting": "[36]", "result": 77.7, "unit": "µM"},
      {"measurement": "TGI", "setting": "[37]", "result": 29.9, "unit": "µM"},
      {"measurement": "TGI", "setting": "[38]", "result": 28, "unit": "µM"},
      {"measurement": "TGI", "setting": "[39]", "result": 47.1, "unit": "µM"},
      {"measurement": "TGI", "setting": "[40]", "result": 56.8, "unit": "µM"},
      {"measurement": "TGI", "setting": "[41]", "result": 33.8, "unit": "µM"},
      {"measurement": "TGI", "setting": "[42]", "result": 35.5, "unit": "µM"},
      {"measurement": "TGI", "setting": "[43]", "result": "> 60.8", "unit": "µM"},
      {"measurement": "TGI", "setting": "[44]", "result": 39.9, "unit": "µM"},
      {"measurement": "TGI", "setting": "[45]", "result": 30.7, "unit": "µM"},
      {"measurement": "TGI", "setting": "[46]", "result": 49.3, "unit": "µM"},
      {"measurement": "TGI", "setting": "[47]", "result": 64, "unit": "µM"},
      {"measurement": "TGI", "setting": "[48]", "result": 46.6, "unit": "µM"},
      {"measurement": "TGI", "setting": "[49]", "result": 34.1, "unit": "µM"},
      {"measurement": "TGI", "setting": "[50]", "result": 31.1, "unit": "µM"},
      {"measurement": "TGI", "setting": "[51]", "result": 78.8, "unit": "µM"},
      {"measurement": "TGI", "setting": "[52]", "result": 42.7, "unit": "µM"},
      {"measurement": "TGI", "setting": "[53]", "result": 32.6, "unit": "µM"},
      {"measurement": "TGI", "setting": "[54]", "result": 40.8, "unit": "µM"}
    ]}
  ]
}
